Source: article PMC5241826, “An extended N-H bond, driven by a conserved second-order interaction, orients the flavin N5 orbital in cholesterol oxidase” (Scientific Reports, 2017)

Molecular target: T1, cholesterol oxidase (COx; H/D-COx) (Streptomyces sp. SA-COO, UniProt P12676)
T1 construct: gene choA; secreted mature form; H/D-exchanged crystal
Test: joint X-ray/neutron crystal structure, […] A neutron, […] A X-ray
Format: binding
Details: H/D-exchanged crystal (D2O soak), room-temperature neutron data, crystallised at pH 5.2; Gly120 N-H to FAD N5 hydrogen bond

T1 sequence (P12676 43-546): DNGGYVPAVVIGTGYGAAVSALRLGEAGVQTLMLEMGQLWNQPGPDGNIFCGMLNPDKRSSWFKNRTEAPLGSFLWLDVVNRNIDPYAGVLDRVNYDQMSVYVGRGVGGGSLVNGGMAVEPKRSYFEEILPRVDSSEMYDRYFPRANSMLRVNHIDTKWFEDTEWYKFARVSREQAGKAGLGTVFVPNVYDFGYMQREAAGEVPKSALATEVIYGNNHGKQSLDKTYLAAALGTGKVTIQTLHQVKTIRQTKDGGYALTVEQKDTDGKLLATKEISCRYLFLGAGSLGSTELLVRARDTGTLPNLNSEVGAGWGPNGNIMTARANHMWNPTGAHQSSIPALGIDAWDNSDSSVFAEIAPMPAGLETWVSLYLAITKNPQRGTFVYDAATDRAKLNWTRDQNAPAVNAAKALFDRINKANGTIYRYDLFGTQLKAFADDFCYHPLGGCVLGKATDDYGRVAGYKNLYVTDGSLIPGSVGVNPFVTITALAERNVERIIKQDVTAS

SMILES: Cc1cc2nc3c(=O)[nH]c(=O)nc-3n(C[C@H](O)[C@H](O)[C@H](O)COP(=O)(O)OP(=O)(O)OC[C@H]3O[C@@H](n4cnc5c(N)ncnc54)[C@H](O)[C@@H]3O)c2cc1C [FAD]
- joint X-ray/neutron crystal structure, 2.2 A neutron, 1.5 A X-ray: one involved in a conserved hydrogen bond between Gly120-NH and FAD-N5
